Assay results published in patent publication US20140163226A1, “NOVEL PYRIMIDINE DERIVATIVE AND PHARMACEUTICAL COMPOSITION INCLUDING SAME AS AN ACTIVE INGREDIENT” (HANMI PHARMACEUTICAL CO., LTD., priority 2011, published 2014).

target: T1, DGAT1 (Homo sapiens, UniProt O75907); assay: Assay for inhibition of DGAT1 activity (IC50), in vitro enzymatic assay using homogenates of HepG2 cell line; format: biochemical; conditions: inhibitory activity against DGAT1; HepG2 protein (25 μg), 1,2-dioleoyl-sn-glycerol (30 μM), 14C oleoyl coenzyme A (10 μM), room temperature, 60 mins
T1 construct: host or cells: HepG2 cell homogenate (supernatant after sonication and 2000×g centrifugation)
T1 sequence (O75907 1-488): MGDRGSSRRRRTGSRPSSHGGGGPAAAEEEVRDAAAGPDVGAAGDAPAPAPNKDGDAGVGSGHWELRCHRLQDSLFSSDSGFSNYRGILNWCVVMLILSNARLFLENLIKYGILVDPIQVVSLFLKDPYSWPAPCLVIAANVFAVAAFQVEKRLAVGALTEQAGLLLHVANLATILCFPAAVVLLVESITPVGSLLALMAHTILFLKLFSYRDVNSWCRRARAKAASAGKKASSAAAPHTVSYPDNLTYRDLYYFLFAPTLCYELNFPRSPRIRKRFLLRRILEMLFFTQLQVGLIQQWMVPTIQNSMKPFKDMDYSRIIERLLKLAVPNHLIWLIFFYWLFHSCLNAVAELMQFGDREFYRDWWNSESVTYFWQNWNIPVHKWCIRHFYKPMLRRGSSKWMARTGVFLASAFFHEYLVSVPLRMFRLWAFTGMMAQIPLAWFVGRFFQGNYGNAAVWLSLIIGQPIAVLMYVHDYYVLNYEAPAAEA
Protocol: In order to identify DGAT1 inhibitors, in vitro enzymatic assays were performed by using homogenates of HepG2 cell line (ATCC, USA, HB-8065). Briefly stated, HepG2 cells were inoculated in 10% FBS-supplemented medium at 1.0×10^7 cells/well, cultured at 37° C., and harvested 72 hrs later. The harvested cells were lysed by ultrasonic treatment, and centrifuged for at 4° C. (2000×g, 10 mins) to remove any uncracked cells and impurities. The supernatant thus formed was obtained, and stored at −70° C. after its protein contents were quantitatively analyzed.
DGAT1 activation was assayed by a modification of the method described by Coleman (Methods in Enzymology, 1992, 209, 98-102). The compound of the present invention ([…]) was incubated with HepG2 protein (25 μg), MgCl2 (150 mM) and 1,2-dioleoyl-sn-glycerol (30 μM) in a total assay volume of 200 μL in plastic tubes.
The reaction was started by adding ^14C oleoyl coenzyme A (10 μM final concentration) and incubated at room temperature for 60 mins. The reaction was ended when a mixed solution (300 μL) of 2-propanol and heptane (7:1) was added thereto. Radioactive triolein product was separated into the organic phase by adding heptane (200 μL) and 1.0 M carbonate buffer (200 μL, pH 9.5). DGAT1 activity was quantified by counting aliquots of the upper heptane layer by liquid […].

`O=C(O)Cc1ccc(-c2csc3c(-c4ccc(NC(=O)Nc5ccc(F)c(F)c5)cc4)ncnc23)cc1` [Example 4, 2-(4-(4-(4-(3-(3,4-difluorophenyl)ureido)phenyl)thieno[3,2-d]pyrimidin-7-yl)phenyl)acetic acid] and `O=C(O)CCc1ccc(-c2csc3c(-c4ccc(NC(=O)Nc5ccc(F)c(F)c5)cc4)ncnc23)cc1` [Example 14, 3-(4-(4-(4-(3-(3,4-difluorophenyl)ureido)phenyl)thieno[3,2-d]pyrimidin-7-yl)phenyl)propanoic acid] cannot be ordered by IC50: under 1 nM for the first, under 5 nM for the second.

`O=C(O)CCc1ccc(-c2csc3c(-c4ccc(NC(=O)Nc5ccc(-n6cnnc6)cc5)cc4)ncnc23)cc1` [Example 53, 3-(4-(4-(4-(3-(4-(4H-1,2,4-triazol-4-yl)phenyl)ureido)phenyl)thieno[3,2-d]pyrimidin-7-yl)phenyl)propanoic acid] and `Cc1ccc(NC(=O)Nc2ccc(-c3ncnc4c(-c5ccc(CCC(=O)O)cc5)csc34)cc2)cc1` [Example 21, 3-(4-(4-(4-(3-p-tolylureido)phenyl)thieno[3,2-d]pyrimidin-7-yl)phenyl)propanoic acid] cannot be ordered by IC50: under 50 nM for the first, under 1 nM for the second.

`O=C(O)Cc1ccc(-c2csc3c(-c4ccc(NC(=O)Nc5ccnc(Cl)c5)cc4)ncnc23)cc1` [Example 34, 2-(4-(4-(4-(3-(2-chloropyridin-4-yl)ureido)phenyl)thieno[3,2-d]pyrimidin-7-yl)phenyl)acetic acid] and `O=C(O)Cc1ccc(-c2csc3c(-c4ccc(NC(=O)Nc5cccc(Cl)c5)cc4)ncnc23)cc1` [Example 2, 2-(4-(4-(4-(3-(3-chlorophenyl)ureido)phenyl)thieno[3,2-d]pyrimidin-7-yl)phenyl)acetic acid] cannot be ordered by IC50: under 10 nM for the first, under 1 nM for the second.

`O=C(O)Cc1ccc(-c2csc3c(-c4ccc(Nc5nc6ccccc6s5)cc4)ncnc23)cc1` [Example 61, 2-(4-(4-(4-(benzo[d]thiazol-2-ylamino)phenyl)thieno[3,2-d]pyrimidin-7-yl)phenyl)acetic acid] and `O=C(O)Cc1ccc(-c2csc3c(-c4ccc(NC(=O)Nc5ccccc5)cc4)ncnc23)cc1` [Example 1, 2-(4-(4-(4-(3-phenylureido)phenyl)thieno[3,2-d]pyrimidin-7-yl)phenyl)acetic acid] cannot be ordered by IC50: under 5 nM for the first, under 5 nM for the second.

`O=C(O)CCc1ccc(-c2csc3c(-c4ccc(NC(=O)Nc5ccc(-c6nn[nH]n6)cc5)cc4)ncnc23)cc1` [Example 49, 3-(4-(4-(4-(3-(4-(2H-tetrazol-5-yl)phenyl)ureido)phenyl)thieno[3,2-d]pyrimidin-7-yl)phenyl)propanoic acid] and `COc1ccc(NC(=O)Nc2ccc(-c3ncnc4c(-c5ccc(CCC(=O)O)cc5)csc34)cc2)cc1` [Example 15, 3-(4-(4-(4-(3-(4-methoxyphenyl)ureido)phenyl)thieno[3,2-d]pyrimidin-7-yl)phenyl)propanoic acid] cannot be ordered by IC50: under 1 nM for the first, under 5 nM for the second.

`O=C(Nc1ccc(-c2ncnc3c(-c4ccc(C(=O)O)cc4)csc23)cc1)Nc1cccc(Cl)c1` [Example 3, 4-(4-(4-(3-(3-chlorophenyl)ureido)phenyl)thieno[3,2-d]pyrimidin-7-yl)benzoic acid] and `CC(C)(C(=O)O)c1ccc(-c2csc3c(-c4ccc(NC(=O)Nc5cccc(Cl)c5)cc4)ncnc23)cc1` [Example 59, 2-(4-(4-(4-(3-(3-chlorophenyl)ureido)phenyl)thieno[3,2-d]pyrimidin-7-yl)phenyl)-2-methylpropanoic acid] cannot be ordered by IC50: under 1 nM for the first, under 1 nM for the second.

`NC(=O)CCc1ccc(-c2csc3c(-c4ccc(NC(=O)Nc5cccc(Cl)c5)cc4)ncnc23)cc1` [Example 28, 3-(4-(4-(4-(3-(3-chlorophenyl)ureido)phenyl)thieno[3,2-d]pyrimidin-7-yl)phenyl)propanamide] and `O=C(O)CCc1ccc(-c2csc3c(-c4ccc(NC(=O)Nc5cccc(Cl)c5)cc4)ncnc23)cc1` [Example 7, 3-(4-(4-(4-(3-(3-chlorophenyl)ureido)phenyl)thieno[3,2-d]pyrimidin-7-yl)phenyl)propanoic acid] cannot be ordered by IC50: under 5 nM for the first, under 1 nM for the second.

`O=C(O)CCc1ccc(-c2csc3c(-c4ccc(NC(=O)Nc5cc(Cl)ccn5)cc4)ncnc23)cc1` [Example 42, 3-(4-(4-(4-(3-(4-chloropyridin-2-yl)ureido)phenyl)thieno[3,2-d]pyrimidin-7-yl)phenyl)propanoic acid] and `O=C(O)CCc1ccc(-c2csc3c(-c4ccc(NC(=O)Nc5cccc(F)c5)cc4)ncnc23)cc1` [Example 39, 3-(4-(4-(4-(3-(3-fluorophenyl)ureido)phenyl)thieno[3,2-d]pyrimidin-7-yl)phenyl)propanoic acid] cannot be ordered by IC50: under 5 nM for the first, under 1 nM for the second.

`CS(=O)(=O)c1ccc(-c2csc3c(-c4ccc(NC(=O)Nc5cccc(Cl)c5)cc4)ncnc23)cc1` [Example 31, 1-(3-chlorophenyl)-3-(4-(7-(4-(methylsulfon)phenyl)thieno[3,2-d]pyrimidin-4-yl)phenyl)urea] and `O=C(O)CCc1ccc(-c2csc3c(-c4ccc(NC(=O)Nc5cccc(Cl)c5)cc4)ncnc23)cc1F` [Example 30, 3-(4-(4-(4-(3-(3-chlorophenyl)ureido)phenyl)thieno[3,2-d]pyrimidin-7-yl)-2-fluorophenyl)propanoic acid] cannot be ordered by IC50: under 10 nM for the first, under 1 nM for the second.

`Cn1cc(-c2ccc(CCC(=O)O)cc2)c2ncnc(-c3ccc(NC(=O)Nc4ccccc4Cl)cc3)c21` [Example 57] and `COc1ccccc1NC(=O)Nc1ccc(-c2ncnc3c(-c4ccc(CCC(=O)O)cc4)csc23)cc1` [Example 20, 3-(4-(4-(4-(3-(2-methoxyphenyl)ureido)phenyl)thieno[3,2-d]pyrimidin-7-yl)phenyl)propanoic acid] cannot be ordered by IC50: under 50 nM for the first, under 5 nM for the second.

`O=C(O)CCc1ccc(-c2csc3c(-c4ccc(NC(=O)Nc5cccc(C(F)(F)F)c5F)cc4)ncnc23)cc1` [Example 55, 3-(4-(4-(4-(3-(2-fluoro-3-(trifluoromethyl)phenyl)ureido)phenyl)thieno[3,2-d]pyrimidin-7-yl)phenyl)propanoic acid] and `COc1ccc(Cl)c(NC(=O)Nc2ccc(-c3ncnc4c(-c5ccc(CCC(=O)O)cc5)csc34)cc2)c1` [Example 46, 3-(4-(4-(4-(3-(2-chloro-5-methoxyphenyl)ureido)phenyl)thieno[3,2-d]pyrimidin-7-yl)phenyl)propanoic acid] cannot be ordered by IC50: under 5 nM for the first, under 5 nM for the second.

`CN1CCC(NC(=O)Nc2ccc(-c3ncnc4c(-c5ccc(CCC(=O)O)cc5)csc34)cc2)CC1` [Example 51, 3-(4-(4-(4-(3-(1-methylpiperidin-4-yl)ureido)phenyl)thieno[3,2-d]pyrimidin-7-yl)phenyl)propanoic acid] and `CN1CCN(c2ccc(NC(=O)Nc3ccc(-c4ncnc5c(-c6ccc(CCC(=O)O)cc6)csc45)cc3)cc2)CC1` [Example 50, 3-(4-(4-(4-(3-(4-(4-methylpiperazin-1-yl)phenyl)ureido)phenyl)thieno[3,2-d]pyrimidin-7-yl)phenyl)propanoic acid] cannot be ordered by IC50: under 1 nM for the first, under 20 nM for the second.

`CN(C)c1ccc(NC(=O)Nc2ccc(-c3ncnc4c(-c5ccc(CC(=O)O)cc5)csc34)cc2)cc1` [Example 35, 2-(4-(4-(4-(3-(4-(dimethylamino)phenyl)ureido)phenyl)thieno[3,2-d]pyrimidin-7-yl)phenyl)acetic acid] and `CN(C)c1ccc(NC(=O)Nc2ccc(-c3ncnc4c(-c5ccc(CCC(=O)O)cc5)csc34)cc2)cc1` [Example 40, 3-(4-(4-(4-(3-(4-(dimethylamino)phenyl)ureido)phenyl)thieno[3,2-d]pyrimidin-7-yl)phenyl)propanoic acid] cannot be ordered by IC50: under 10 nM for the first, under 1 nM for the second.

`O=C(O)CCc1ccc(-c2csc3c(-c4ccc(NC(=O)Nc5ccc(N6CCOCC6)cc5)cc4)ncnc23)cc1` [Example 44, 3-(4-(4-(4-(3-(4-morpholinophenyl)ureido)phenyl)thieno[3,2-d]pyrimidin-7-yl)phenyl)propanoic acid] and `O=C(O)CCc1ccc(-c2csc3c(-c4ccc(NC(=O)Nc5ccc(N6CCCC6)cc5)cc4)ncnc23)cc1` [Example 52, 3-(4-(4-(4-(3-(4-(pyrrolidin-1-yl)phenyl)ureido)phenyl)thieno[3,2-d]pyrimidin-7-yl)phenyl)propanoic acid] cannot be ordered by IC50: under 10 nM for the first, under 1 nM for the second.

Molecule `COc1cc(NC(=O)Nc2ccc(-c3ncnc4c(-c5ccc(CCC(=O)O)cc5)csc34)cc2)cc(OC)c1OC` [Example 24, 3-(4-(4-(4-(3-(3,4,5-trimethoxyphenyl)ureido)phenyl)thieno[3,2-d]pyrimidin-7-yl)phenyl)propanoic acid] has an IC50 of under 5 nM.
